Assay results from PubChem BioAssay AID1918942 (Molecular Pharmacology Branch, DTP, NCI, 2023).
“And” between values parts separate entries of the source, which are not always exact repeats. Identical values can stand only once.

Test system: 743489-274-T-PDC complex spheroid viability
Test: Anticancer human tumor 743489-274-T-PDC patient-derived renal cell carcinoma cell line growth inhibition
Conditions: for viability, T/C: stronger effect = lower value
Outline: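 Drug combinations with the LSD1 inhibitor iadademstat tested on tumor cells co-cultured as spheroids with endothelial cells and mesenchymal stem cells. Concentrations descended in half-log increments from clinical Cmax or 10 microM.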

[1] = curve of first compound, second compound 0.1 µM
[2] = curve of first compound, second compound 0.316 µM
[3] = curve of first compound, second compound 1 µM
[4] = curve of first compound, second compound 3.16 µM
[5] = curve of first compound, second compound 10 µM
[6] = second compound 0.1 µM, first compound 0.00949 µM
[7] = second compound 0.1 µM, first compound 0.03 µM
[8] = second compound 0.1 µM, first compound 0.0949 µM
[9] = second compound 0.1 µM, first compound 0.3 µM
[10] = second compound 0.316 µM, first compound 0.00949 µM
[11] = second compound 0.316 µM, first compound 0.03 µM
[12] = second compound 0.316 µM, first compound 0.0949 µM
[13] = second compound 0.316 µM, first compound 0.3 µM
[14] = second compound 1 µM, first compound 0.00949 µM
[15] = second compound 1 µM, first compound 0.03 µM
[16] = second compound 1 µM, first compound 0.0949 µM
[17] = second compound 1 µM, first compound 0.3 µM
[18] = second compound 3.16 µM, first compound 0.00949 µM
[19] = second compound 3.16 µM, first compound 0.03 µM
[20] = second compound 3.16 µM, first compound 0.0949 µM
[21] = second compound 3.16 µM, first compound 0.3 µM
[22] = second compound 10 µM, first compound 0.00949 µM
[23] = second compound 10 µM, first compound 0.03 µM
[24] = second compound 10 µM, first compound 0.0949 µM
[25] = second compound 10 µM, first compound 0.3 µM
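Further: spheroids exposed to compounds for 7 days before readout.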
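Wherever viability, T/C is given: 100% = DMSO vehicle control wells.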

Structure (SMILES)	IC50 [1] [nM]	IC50 [2] [nM]	IC50 [3] [nM]	IC50 [4] [nM]	IC50 [5] [nM]	viability, T/C [6] [%]	viability, T/C [7] [%]	viability, T/C [8] [%]	viability, T/C [9] [%]	viability, T/C [10] [%]	viability, T/C [11] [%]	viability, T/C [12] [%]	viability, T/C [13] [%]	viability, T/C [14] [%]	viability, T/C [15] [%]	viability, T/C [16] [%]	viability, T/C [17] [%]	viability, T/C [18] [%]	viability, T/C [19] [%]	viability, T/C [20] [%]	other results
CCc1c2c(nc3ccc(O)cc13)-c1cc3c(c(=O)n1C2)COC(=O)[C@]3(O)CC + NC1CC1c1ccc(-c2cccc(O)c2)cc1	4.88	2.4	2.71	2.26	3.52	47.3	33.7	36.4	33.5	45.5	35	36.7	40.2	41.3	39	43.9	42.7	42.3	33.5	36.7	viability, T/C (second compound 0.1 µM, first compound 0.000949 µM): 62.5%; viability, T/C (second compound 0.1 µM, first compound 0.003 µM): 52.5%; viability, T/C (second compound 0.316 µM, first compound 0.000949 µM): 54.3%; viability, T/C (second compound 0.316 µM, first compound 0.003 µM): 51.7%; viability, T/C (second compound 1 µM, first compound 0.000949 µM): 60.5%; viability, T/C (second compound 1 µM, first compound 0.003 µM): 51.9%; viability, T/C (second compound 3.16 µM, first compound 0.000949 µM): 57%; viability, T/C (second compound 3.16 µM, first compound 0.003 µM): 48.7%; viability, T/C [21]: 34.5%; viability, T/C (second compound 10 µM, first compound 0.000949 µM): 58.7%; viability, T/C (second compound 10 µM, first compound 0.003 µM): 50.8%; viability, T/C [22]: 42.5%; viability, T/C [23]: 35.3%; viability, T/C [24]: 32%; viability, T/C [25]: 38.8%
Nc1ncn(C2CC(O)C(CO)O2)c(=O)n1 (configuration not stated)	–	–	–	–	–	–	–	–	–	–	–	–	–	–	–	–	–	–	–	–	viability, T/C (compound 0.00316 µM): 105% and 90.1%; viability, T/C (compound 0.01 µM): 98% and 100%; viability, T/C (compound 0.0316 µM): 81% and 101%; viability, T/C (compound 0.1 µM): 96.1% and 84.5%; viability, T/C (compound 0.316 µM): 96% and 94.3%; viability, T/C (compound 1 µM): 84.3% and 97.7%; IC50 (curve of compound): > 1000 nM
NS(=O)(=O)OCC1CC(n2ccc3c(NC4CCc5ccccc54)ncnc32)CC1O (configuration not stated) + NC1CC1c1ccc(-c2cccc(O)c2)cc1	> 3000	> 3000	> 3000	> 3000	> 3000	98	107	127	154	98.3	97.4	125	150	108	111	125	152	96.5	104	122	viability, T/C (second compound 0.1 µM, first compound 0.949 µM): 154%; viability, T/C (second compound 0.1 µM, first compound 3 µM): 134%; viability, T/C (second compound 0.316 µM, first compound 0.949 µM): 134%; viability, T/C (second compound 0.316 µM, first compound 3 µM): 149%; viability, T/C (second compound 1 µM, first compound 0.949 µM): 168%; viability, T/C (second compound 1 µM, first compound 3 µM): 137%; viability, T/C [21]: 145%; viability, T/C (second compound 3.16 µM, first compound 0.949 µM): 140%; viability, T/C (second compound 3.16 µM, first compound 3 µM): 130%; viability, T/C [22]: 90%; viability, T/C [23]: 98.6%; viability, T/C [24]: 129%; viability, T/C [25]: 153%; viability, T/C (second compound 10 µM, first compound 0.949 µM): 150%; viability, T/C (second compound 10 µM, first compound 3 µM): 142%
